{"source": "patent US20100111965A1", "about": "“COMBINATION THERAPY” (FUSION ANTIBODIES LIMITED, priority 2006, published 2010)", "key": {"HCT116": {"tested_on": "HCT116", "assay": "RT-PCR of AREG RNA in HCT116 cells after chemotherapy", "type": "cell-based, human", "details": "IC50 dose, 48 hours", "experimental": "FIG. 1B illustrates analysis of AREG and beta actin RNA expression in HCT116 +/+ with/without a 48 hour CPT11 treatment. RNA levels were analyzed following 35 cycles of PCR to determine relative differences in expression between treated and untreated samples;\nFIG. 6 illustrates AREG upregulation following chemotherapeutic challenge in A) HT29, B) HCT116 and C) MDA-MB231 cells. Cells were treated with/without chemotherapy for 48 hours. RT-PCR was performed with 1 μg of total RNA using primer pairs specific for the human AREG gene or GAPDH. The PCR products were separated on 1.5% agarose gel electrophoresis and visualized by ethidium bromide staining.\nCells in a log phase of growth were seeded into T75 flask at ˜20% confluence and incubated overnight to allow adherence to the plate. […] Chemotherapy was substituted with saline in control flasks. After different time exposure to chemotherapy the cells were harvested, washed 3 times in PBS and total RNA was isolated using the RNA TAT-60 reagent according to the manufacturer instructions. […]\nSemi quantitative RT-PCR was performed using a PTC 225 Gradient Cycler (MJ Research Incorporated. The PCR mixture, in a final volume of 25 μL, contains 12.5 μL of 2× Biomix (Bioline, UK), 2 μL of primers (10 μmol/L), 1 μL of cDNA and 9.5 μL of dH2O). […]"}, "HCT 116 +/+": {"tested_on": "HCT 116 +/+", "assay": "Confocal microscopy of AREG expression in HCT116 after CPT-11", "type": "cell-based, human", "details": "24 h and 48 h, compared to untreated controls"}, "RKO +/+": {"tested_on": "RKO +/+", "assay": "Western blot of AREG protein in RKO lysates after chemotherapy", "type": "cell-based, human", "details": "RKO p53 wild type lysates; 48 hour treatment", "experimental": "FIG. 2 illustrates western blot analysis of AREG and gamma tubulin protein expression in HCT116 +/+ and RKO +/+ with/without a 48 hour CPT11 or 5-Fu treatment; HCT 116, RKO, HT 29 and H630 are human colorectal carcinoma cell lines. After different time exposure to chemotherapy the cells were harvested, and washed in 1×PBS. The cell pellet was then lysed in a suitable amount of 1×RIPA lysis buffer (150 mM NaCl, 10 mM Tris at pH 7.2, 0.1% SDS, 1.0% triton X-100 and 5 mM.EDTA) supplemented with protease inhibitors. The cell lysate was briefly vortexed, incubated on ice for 10 min and then centrifuged at 12,000 rpm to remove cell debris. Following centrifugation, the lysate supernatant was removed to a fresh eppendorf tube. Protein concentrations were assayed using the BCA Protein Assay (Pierce) according to the manufacturer's instructions. The absorbance of each sample at 620 nm was assayed using a microplate reader. A standard BSA curve was plotted for each experiment and the protein concentration of each sample calculated. To each sample an equal volume of 5× Western sample buffer and 10% of the final volume of β-mercaptoethanol (Sigma) was added. The samples were denatured at 95° C. for 5 minutes and placed on ice prior to loading onto SDS polyacrylamide gel (SDS PAGE). […] Protein bands were detected by exposure to autoradiograph which was subsequently developed. […]"}, "HCT116 cells": {"tested_on": "HCT116 cells", "assay": "FACS analysis of cell surface AREG in HCT116 with or without irinotecan", "type": "cell-based, human", "details": "2.5 μM for 48 hours; HCT116 and H460 analysed, cell line not given", "experimental": "Following treatment cells were stained with AREG monoclonal antibodies and analysed by FACS\nAfter 48 hours cells were washed in PBS and blocked for 20 minutes in Normal Goat Serum. 5×10^5 cells were incubated with AREG antibodies or isotype control for 2 hours and washed in PBS-T. The cells were incubated with a FITC conjugated goat anti-mouse antibody for 1 hour and washed in PBS-T before analysis on BD FACS canto."}, "H460 lung cancer cells": {"tested_on": "H460 lung cancer cells", "assay": "RT-PCR of AREG RNA in H460 lung cancer cells after chemotherapy", "type": "cell-based", "details": "48 hour treatment", "experimental": "FIG. 5 illustrates analysis of AREG and beta actin RNA expression in H460 lung cancer cells with/without either a 48 hour CPT11 treatment or 5-Fu treatment. RNA levels were analyzed following 35 cycle of PCR to determine relative differences in expression between treated and untreated samples.\nCells in a log phase of growth were seeded into T75 flask at ˜20% confluence and incubated overnight to allow adherence to the plate. […] Chemotherapy was substituted with saline in control flasks. After different time exposure to chemotherapy the cells were harvested, washed 3 times in PBS and total RNA was isolated using the RNA TAT-60 reagent according to the manufacturer instructions.\nReverse transcription was performed with 2.5 μg of RNA using a High Capacity cDNA Archive kit (Applied Biosystem) according to the instruction of the manufacturer.\nSemi quantitative RT-PCR was performed using a PTC 225 Gradient Cycler (MJ Research Incorporated. The PCR mixture, in a final volume of 25 μL, contains 12.5 μL of 2× Biomix (Bioline, UK), 2 μL of primers (10 μmol/L), 1 μL of cDNA and 9.5 μL of dH2O). PCR conditions were initial denaturation step of 95 C for 10 minutes, followed by 35 cycles of 95° C. for 30 sec for denaturation; as annealing step 55° C. for 30 sec; and extension at 72° C. for 90 sec, with a final extension of 72° C. for 10 minutes. […]"}}}
{"smiles": "CCc1c2c(nc3ccc(OC(=O)N4CCC(N5CCCCC5)CC4)cc13)-c1cc3c(c(=O)n1C2)COC(=O)[C@]3(O)CC", "note": "[CPT-11, irinotecan]", "values": [{"measurement": "AREG mRNA expression (RT-PCR)", "setting": "HCT116", "result": "up-regulation"}, {"measurement": "AREG expression levels (confocal microscopy)", "setting": "HCT 116 +/+", "result": "increasing levels of expression at each time point"}, {"measurement": "AREG protein expression (western blot)", "setting": "RKO +/+", "result": "Enhanced AREG expression"}, {"measurement": "increase in the cell surface expression of AREG (FACS)", "setting": "HCT116 cells", "result": "≤ 40", "unit": "%"}, {"measurement": "AREG RNA expression (RT-PCR, 35 cycles)", "setting": "H460 lung cancer cells", "result": "enhanced expression of AREG"}]}
